One block for each molecule: values may come before it.
Experiments:
[1] = target: human CB1 receptor (Homo sapiens, UniProt P21554); assay: cell-based
Method: The compounds according to the invention were the subject of pharmacological tests for determining the activity with respect to human cannabinoid CB1-type receptors. The efficacy of the compounds of formula (I) was determined in a functional test which measures cannabinoid CB1 receptor activity (intracellular cyclic AMP test). The test for detecting intracellular cyclic AMP in U373MG cells naturally expressing the human CB1 receptor was carried out as described in the reference: Bouaboula et al., 1995, J. Biol. Chem. 270:13973-13980. The HTRF cAMP Dynamic Kit from CisBio was used to quantify the intracellular cyclic AMP.

[2] = target: T1, cannabinoid CB1-type receptor (Mus musculus, UniProt P47746); assay: inhibition of gastrointestinal transit induced by racemic CP55,940 in mice; format: in vivo; conditions: 1 mg/kg per os; 3 hours after administration of the product; male CD1 mice; CP55,940 0.15 mg/kg ip
T1 construct: male CD1 mice received the test product per os; from tissue; host or cells: whole animal, male CD1 mice
Method: After a further 30 minutes, the animals received a charcoal bolus po. Thirty minutes later, the animals are sacrificed by euthanasia (CO2/O2) and the intestine is dissected. The progression of the charcoal bolus in the intestine is expressed as percentage of the total length of the intestine.

[3] = target: cannabinoid CB receptor (Mus musculus, UniProt P47746); assay: hypothermia induced by cannabinoid CB receptor agonist CP55,940 in mice; conditions: 3 mg/kg po; male CD1 mice; CP55,940 1.25 mg/kg i.p.; rectal temperature at 90 minutes
Sequence of cannabinoid CB receptor (P47746 whole entry): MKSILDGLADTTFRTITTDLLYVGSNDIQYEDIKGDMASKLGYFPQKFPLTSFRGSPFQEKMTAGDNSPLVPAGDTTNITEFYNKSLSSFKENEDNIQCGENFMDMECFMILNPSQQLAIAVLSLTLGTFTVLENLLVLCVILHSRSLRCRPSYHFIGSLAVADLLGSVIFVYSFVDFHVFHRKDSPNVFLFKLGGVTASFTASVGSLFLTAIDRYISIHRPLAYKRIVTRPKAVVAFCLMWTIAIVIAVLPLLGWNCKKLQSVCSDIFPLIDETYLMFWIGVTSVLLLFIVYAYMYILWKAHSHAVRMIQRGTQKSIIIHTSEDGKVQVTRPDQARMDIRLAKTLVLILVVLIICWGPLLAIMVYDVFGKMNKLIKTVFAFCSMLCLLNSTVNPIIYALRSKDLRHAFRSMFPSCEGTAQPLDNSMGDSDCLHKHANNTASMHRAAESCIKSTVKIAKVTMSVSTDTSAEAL
Method: At time 0 min, the rectal temperature of male CD1 mice is measured before injection of the test product. At 30 minutes, a further measurement of the rectal temperature of the mice is taken and the racemic CP55,940 agonist ORS, 3RS, 4RS-3-[hydroxy-2-(1,1-dimethylheptyl)phenyl]-4-(3-hydroxypropyl)cyclohexan-1-ol) (1.25 mg/kg i.p. in 10% cremophor) is administered. At 90 minutes, the rectal temperature is again taken. The results are expressed as % relative to the control batch injected with the CP55,940 (minimum temperature) and to the carrier batch without CP55,940 treatment (maximum temperature).

Sequence of human CB1 receptor (P21554 whole entry): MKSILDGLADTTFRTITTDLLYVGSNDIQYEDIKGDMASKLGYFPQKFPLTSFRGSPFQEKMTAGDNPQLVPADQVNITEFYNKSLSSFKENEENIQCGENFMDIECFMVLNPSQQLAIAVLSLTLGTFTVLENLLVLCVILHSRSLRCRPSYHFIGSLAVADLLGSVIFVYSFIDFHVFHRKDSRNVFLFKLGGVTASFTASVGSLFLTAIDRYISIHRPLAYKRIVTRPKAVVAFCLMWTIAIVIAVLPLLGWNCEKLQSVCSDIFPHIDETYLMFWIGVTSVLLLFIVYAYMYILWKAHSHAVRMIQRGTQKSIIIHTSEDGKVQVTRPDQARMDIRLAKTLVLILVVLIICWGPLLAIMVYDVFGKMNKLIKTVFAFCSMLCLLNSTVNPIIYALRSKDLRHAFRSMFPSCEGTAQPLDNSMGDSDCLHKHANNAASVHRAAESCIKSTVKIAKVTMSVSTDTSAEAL
T1 sequence (P47746 whole entry): as the sequence (P47746 whole entry) above

- melting point: 228 to 230 °C
SMILES: C[C@H](NC(=O)c1cc(F)cc(NS(=O)(=O)CC2CN(C(c3ccc(Cl)cc3)c3ccc(Cl)cc3)C2)c1)C(N)=O [Compound No. 3, 3-({1-[Bis(4-chlorophenyl)methyl]azetidin-3-yl}methanesulphonylamino)-N—((S)-1-carbamoylethyl)-5-fluorobenzamide]

- melting point: 154 to 156 °C
SMILES: NC(=O)CNC(=O)c1cc(F)cc(NS(=O)(=O)CC2CN(C(c3ccc(Cl)cc3)c3ccc(Cl)cc3)C2)c1 [Compound No. 2, 3-({1-[bis(4-chlorophenyl)methyl]azetidin-3-yl}methanesulphonylamino)-N-carbamoylmethyl-5-fluorobenzamide]

SMILES: CCOC(=O)[C@H](C)NC(=O)c1cc(F)cc(N(C2CN(C(c3ccc(Cl)cc3)c3ccc(Cl)cc3)C2)S(C)(=O)=O)c1 [compound 79]
- IC50 [1]: 0.07 µM

- melting point: 216 °C
SMILES: CNC(=O)CNC(=O)c1cccc(NS(=O)(=O)CC2CN(C(c3ccc(Cl)cc3)c3ccc(Cl)cc3)C2)c1 [compound 15, 3-({1-[bis(4-chlorophenyl)methyl]azetidin-3-yl}methanesulphonylamino)-N-(methylcarbamoylmethyl)benzamide]

SMILES: C[C@H](NC(=O)c1cc(N(C2CN(C(c3ccc(Cl)cc3)c3ccc(Cl)cc3)C2)S(C)(=O)=O)cc(C(F)(F)F)c1)C(=O)O [compound 68]
- IC50 [1]: 0.024 µM
- percentages of inhibition (gastrointestinal transit model) [2]: 7%

- melting point: 190 to 192 °C
SMILES: NC(=O)CCNC(=O)c1cccc(NS(=O)(=O)CC2CN(C(c3ccc(Cl)cc3)c3ccc(Cl)cc3)C2)c1 [Compound No. 7, 3-({1-[bis(4-chlorophenyl)methyl]azetidin-3-yl}methanesulphonylamino)-N-(2-carbamoylethyl)benzamide]

SMILES: C[C@H](NC(=O)c1cccc(N(C2CN(C(c3ccc(Cl)cc3)c3ccc(Cl)cc3)C2)S(C)(=O)=O)c1)C(N)=O
- IC50 [1]: 0.043 µM
- percentages of inhibition (gastrointestinal transit model) [2]: 39.2%
- percentages of inhibition of the decrease in temperature induced by the agonist [3]: 5%

- melting point: 150 °C
SMILES: CNC(=O)[C@H](C)NC(=O)c1cc(F)cc(NS(=O)(=O)CC2CN(C(c3ccc(Cl)cc3)c3ccc(Cl)cc3)C2)c1 [compound 26, 3-({1-[bis(4-chlorophenyl)methyl]azetidin-3-yl}methanesulphonylamino)-5-fluoro-N—((S)-1-methylcarbamoylethyl)benzamide]

- melting point: 229 °C
SMILES: C[C@H](NC(=O)c1cccc(NS(=O)(=O)CC2CN(C(c3ccc(Cl)cc3)c3ccc(Cl)cc3)C2)c1)C(N)=O [Compound No. 1, 3-({1-[bis(4-chlorophenyl)methyl]azetidin-3-yl}methanesulphonylamino)-N—((S)-1-carbamoylethyl)benzamide]

SMILES: CC[C@H](NC(=O)c1ccc(F)c(N(C2CN(C(c3ccc(Cl)cc3)c3ccc(Cl)cc3)C2)S(C)(=O)=O)c1)C(N)=O [compound 36]
- IC50 [1]: 0.952 µM

- melting point: 183 to 185 °C
SMILES: COc1cc(NS(=O)(=O)CC2CN(C(c3ccc(Cl)cc3)c3ccc(Cl)cc3)C2)cc(C(=O)N[C@@H](C)C(N)=O)c1 (hydrate or solvate) [compound 22, 3-({1-[bis(4-chlorophenyl)methyl]azetidin-3-yl}methanesulphonylamino)-N—((S)-1-carbamoylethyl)-5-methoxybenzamide]

SMILES: C[C@H](NC(=O)c1cc(F)cc(N(C2CN(C(c3ccc(Br)cc3)c3ccc(Br)cc3)C2)S(C)(=O)=O)c1)C(N)=O [compound 70, 3-({1-[bis(4-bromophenyl)methyl]azetidin-3-yl}methanesulphonylamino)-N—((S)-1-carbamoylethyl)-5-fluorobenzamide]
- IC50 [1]: 0.031 µM

SMILES: CC(C)[C@H](NC(=O)c1cc(N(C2CN(C(c3ccc(Cl)cc3)c3ccc(Cl)cc3)C2)S(C)(=O)=O)cc(C(F)(F)F)c1)C(N)=O [compound 56]
- IC50 [1]: 0.041 µM

- melting point: 186 °C
SMILES: NC(=O)CCCNC(=O)c1cc(F)cc(NS(=O)(=O)CC2CN(C(c3ccc(Cl)cc3)c3ccc(Cl)cc3)C2)c1 [compound 28, 3-({1-[bis(4-chlorophenyl)methyl]azetidin-3-yl}methanesulphonylamino)-N-(3-carbamoylpropyl)-5-fluorobenzamide]

- percentages of inhibition (gastrointestinal transit model) [2]: 74%
- percentages of inhibition of the decrease in temperature induced by the agonist [3]: 28%
SMILES: CC[C@H](NC(=O)c1cc(NS(=O)(=O)CC2CN(C(c3ccc(Cl)cc3)c3ccc(Cl)cc3)C2)cc(C(F)(F)F)c1)C(N)=O [compound 55, 3-({1-[bis(4-chlorophenyl)methyl]azetidin-3-yl}methanesulphonylamino)-N—((S)-1-carbamoylpropyl)-5-trifluoromethylbenzamide]

- melting point: 212 to 214 °C
SMILES: NC(=O)[C@H](CO)NC(=O)c1cc(F)cc(NS(=O)(=O)CC2CN(C(c3ccc(Cl)cc3)c3ccc(Cl)cc3)C2)c1 [compound 13, 3-({1-[bis(4-chlorophenyl)methyl]azetidin-3-yl}methanesulphonylamino)-N—((S)-1-carbamoyl-2-hydroxyethyl)-5-fluorobenzamide]

SMILES: C[C@H](NC(=O)c1cc(F)cc(N(C2CN(C(c3ccc(Cl)cc3)c3ccc(Cl)cc3)C2)S(C)(=O)=O)c1)C(N)=O
- IC50 [1]: 0.009 µM
- percentages of inhibition (gastrointestinal transit model) [2]: 49%

- melting point: 212 to 214 °C
SMILES: CC[C@H](NC(=O)c1cc(F)cc(NS(=O)(=O)CC2CN(C(c3ccc(Cl)cc3)c3ccc(Cl)cc3)C2)c1)C(N)=O [compound 14, 3-({1-[bis(4-chlorophenyl)methyl]azetidin-3-yl}methanesulphonylamino)-N—((S)-1-carbamoylpropyl)-5-fluorobenzamide]

- melting point: 176 °C
SMILES: O=C(NCC(=O)N1CCOCC1)c1cccc(NS(=O)(=O)CC2CN(C(c3ccc(Cl)cc3)c3ccc(Cl)cc3)C2)c1 [Compound No. 8, 3-({1-[bis(4-chlorophenyl)methyl]azetidin-3-yl}methanesulphonylamino)-N-(2-morpholin-4-yl-2-oxoethyl)benzamide]

- percentages of inhibition (gastrointestinal transit model) [2]: 78%
- percentages of inhibition of the decrease in temperature induced by the agonist [3]: 21%
SMILES: CNC(=O)[C@H](C)NC(=O)c1cc(NS(=O)(=O)CC2CN(C(c3ccc(Cl)cc3)c3ccc(Cl)cc3)C2)cc(C(F)(F)F)c1 [compound 57, 3-({1-[bis(4-chlorophenyl)methyl]azetidin-3-yl}methanesulphonylamino)-N—((S)-1-methylcarbamoylethyl)-5-trifluoromethylbenzamide]

- melting point: 235 °C
SMILES: C[C@@H](NC(=O)c1cccc(NS(=O)(=O)CC2CN(C(c3ccc(Cl)cc3)c3ccc(Cl)cc3)C2)c1)C(N)=O [Compound No. 5, 3-({1-[Bis(4-chlorophenyl)methyl]azetidin-3-yl}methanesulphonylamino)-N—((R)-1-carbamoylethyl)benzamide]

- melting point: 219 to 221 °C
SMILES: C[C@@H](NC(=O)c1cc(F)cc(NS(=O)(=O)CC2CN(C(c3ccc(Cl)cc3)c3ccc(Cl)cc3)C2)c1)C(N)=O [Compound No. 4, 3-({1-[bis(4-chlorophenyl)methyl]azetidin-3-yl}methanesulphonylamino)-N—((R)-1-carbamoylethyl)-5-fluorobenzamide]

SMILES: C[C@@H](NC(=O)c1cc(F)cc(N(C2CN(C(c3ccc(Cl)cc3)c3ccc(Cl)cc3)C2)S(C)(=O)=O)c1)C(N)=O
- IC50 [1]: 0.284 µM

- melting point: 171 to 173 °C
SMILES: CNC(=O)[C@H](C)NC(=O)c1cccc(NS(=O)(=O)CC2CN(C(c3ccc(Cl)cc3)c3ccc(Cl)cc3)C2)c1 [Compound No. 9, 3-({1-[bis(4-chlorophenyl)methyl]azetidin-3-yl}methanesulphonylamino)-N—((S)-1-methylcarbamoylethyl)benzamide]

- melting point: 196 to 198 °C
SMILES: NC(=O)CNC(=O)c1cccc(NS(=O)(=O)CC2CN(C(c3ccc(Cl)cc3)c3ccc(Cl)cc3)C2)c1 [compound 16, 3-({1-[bis(4-chlorophenyl)methyl]azetidin-3-yl}methanesulphonylamino)-N-(carbamoylmethyl)benzamide]

- percentages of inhibition of the decrease in temperature induced by the agonist [3]: 17%
SMILES: Cc1cc(NS(=O)(=O)CC2CN(C(c3ccc(Cl)cc3)c3ccc(Cl)cc3)C2)cc(C(=O)N[C@@H](C)C(N)=O)c1 [compound 38, 3-({1-[bis(4-chlorophenyl)methyl]azetidin-3-yl}methanesulphonylamino)-N—((S)-1-carbamoylethyl)-5-methylbenzamide]

- melting point: 220 to 222 °C
SMILES: CC[C@H](NC(=O)c1cccc(NS(=O)(=O)CC2CN(C(c3ccc(Cl)cc3)c3ccc(Cl)cc3)C2)c1)C(N)=O [compound 10, 3-({1-[bis(4-chlorophenyl)methyl]azetidin-3-yl}methanesulphonylamino)-N—((S)-1-carbamoylpropyl)benzamide]

— patent US8445478B2 (Sanofi, priority 2007, dated 2013)
